In PMC12637020, “Synthesis and biological evaluation of novel hydrazone derivatives for the treatment of Alzheimer's disease” (RSC Advances, 2025):

Assays:
BChE enzyme = BChE enzyme (Homo sapiens, UniProt P06276); experiment: biochemical; settings: for inhibition at 1000 µM: read-out: BChE% inhibition 10^−3 M; for inhibition at 100 µM: read-out: BChE% inhibition 10^−4 M
Text: (§1) The assay was completed in two steps.
(§2) The potential inhibitory effects of the obtained molecules on the AChE and BChE enzymes was examined using a variation of the Ellman method.[31,33,41–43] Distilled water from the Millipore/Milli-Q purification apparatus was utilized at every stage of the biological activity investigations during the evaluation process. In less than a week, all the solutions required for the biological investigation were meticulously prepared from scratch. A “BioTek-Precision Power (United States)” robotic pipetting system was utilized to distribute the prepared solutions and apply the test compounds and enzyme–substrate solutions to 96-well plates. The “BioTek-Synergy H1 Microplate Reader (United States)” was employed to establish and follow the enzyme protocol for spectrophotometric measurements. Solutions of the compounds were prepared at two different concentrations, 10^−3 M and 10^−4 M, using dimethylsulfoxide (DMSO) as 2% solution, and these were used in biological activity studies.

AChE enzyme = AChE enzyme (Homo sapiens, UniProt P22303); experiment: biochemical; type: biochemical; settings: for inhibitory activity: at concentrations of 1000 and 100 µM; for inhibition at 1000 µM: read-out: AChE% inhibition 10^−3 M; for inhibition at 100 µM: read-out: AChE% inhibition 10^−4 M; for IC50: tested at 10 to 0.001 µM
Text: as §1, §2

[1] = tested on: NIH/3T3 mouse embryonic fibroblast cell line; experiment: MTT cytotoxicity test in NIH/3T3 cell line; type: cell-based; settings: for Selectivity index: IC50 (NIH3T3)/IC50 (AChE); for IC50: Mus musculus, MTT, NIH3T3 fibroblast cells
Description: The IC50 values of the compounds were determined by nonlinear regression analysis, allowing the cytotoxic properties of the compounds to be interpreted. The molecules D1f and D1c were active against AChE enzymes.
For cytotoxicity tests, the NIH/3T3 mouse embryonic fibroblast cell line (ATCC® CRL-1658TM, London, UK) was employed. The supplier's recommendation served as the basis for the NIH/3T3 cells' incubation time. In each well of the 96-well plates, […] NIH/3T3 cells were planted. The MTT assay was performed in compliance with the previously mentioned standards.[29,35]

Chain of AChE enzyme (P22303 32-614): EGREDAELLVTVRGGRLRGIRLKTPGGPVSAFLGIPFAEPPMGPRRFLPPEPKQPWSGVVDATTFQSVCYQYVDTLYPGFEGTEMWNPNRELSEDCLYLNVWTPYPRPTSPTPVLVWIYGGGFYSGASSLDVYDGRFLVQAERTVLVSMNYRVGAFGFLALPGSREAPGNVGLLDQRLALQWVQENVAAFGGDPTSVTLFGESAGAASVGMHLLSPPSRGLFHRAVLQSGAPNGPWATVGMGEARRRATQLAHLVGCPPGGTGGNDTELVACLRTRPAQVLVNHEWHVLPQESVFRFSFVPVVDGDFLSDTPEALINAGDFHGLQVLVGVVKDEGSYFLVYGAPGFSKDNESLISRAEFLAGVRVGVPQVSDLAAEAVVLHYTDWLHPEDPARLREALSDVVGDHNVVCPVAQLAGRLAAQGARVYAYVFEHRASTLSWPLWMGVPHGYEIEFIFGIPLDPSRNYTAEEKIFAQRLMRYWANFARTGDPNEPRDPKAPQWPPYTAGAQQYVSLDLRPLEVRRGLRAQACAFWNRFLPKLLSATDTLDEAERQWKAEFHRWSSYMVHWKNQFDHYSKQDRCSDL
Chain of BChE enzyme (P06276 29-602, species assumed): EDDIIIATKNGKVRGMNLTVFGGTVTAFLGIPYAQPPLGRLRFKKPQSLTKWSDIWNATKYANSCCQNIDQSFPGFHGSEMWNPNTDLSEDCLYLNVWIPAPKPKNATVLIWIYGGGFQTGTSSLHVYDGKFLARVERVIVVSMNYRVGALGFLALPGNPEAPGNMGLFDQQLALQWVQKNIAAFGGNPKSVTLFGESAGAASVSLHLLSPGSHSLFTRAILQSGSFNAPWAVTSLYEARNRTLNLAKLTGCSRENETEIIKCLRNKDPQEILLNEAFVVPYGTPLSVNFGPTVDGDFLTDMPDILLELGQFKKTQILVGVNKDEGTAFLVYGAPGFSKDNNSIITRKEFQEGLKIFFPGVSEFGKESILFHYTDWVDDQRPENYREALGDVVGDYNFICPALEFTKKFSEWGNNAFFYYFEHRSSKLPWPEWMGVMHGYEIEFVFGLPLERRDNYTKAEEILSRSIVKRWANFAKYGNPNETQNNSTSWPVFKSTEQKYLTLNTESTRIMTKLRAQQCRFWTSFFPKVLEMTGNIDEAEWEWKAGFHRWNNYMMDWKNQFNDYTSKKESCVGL

Row | SMILES | IC50 (BChE enzyme) [mM] | inhibition at 1000 µM (BChE enzyme) [%] | inhibition at 100 µM (BChE enzyme) [%] | inhibitory activity (AChE enzyme) | inhibition at 1000 µM (AChE enzyme) [%] | inhibition at 100 µM (AChE enzyme) [%] | IC50 (AChE enzyme) [µM] | Selectivity index [1] | IC50 [1] [nM]
1 | CC(=NN=c1scc(-c2ccc(C#N)cc2)n1C)c1ccc(N2CCCCC2)cc1 [D1f, 4-(-3-Methyl-2-((1-(4-(piperidin-1-yl)phenyl)ethylidene)hydrazineylidene)-2,3-dihydrothiazol-4-yl)benzonitrile] | > 1 | 29 ± 1.24 | 17 ± 0.784 | more than 50% | 96.8 ± 2.09 | 91.2 ± 2.43 | 0.039 ± 0.001 | 85.231 | 3320 ± 155
2 | CC(=NN=c1scc(-c2ccc([N+](=O)[O-])cc2)n1C)c1ccc(N2CCCCC2)cc1 [D1c, 3-Methyl-4-(4-nitrophenyl)-2-((1-(4-(piperidin-1-yl)phenyl)ethylidene)hydrazineylidene)-2,3-dihydrothiazole] | > 1 | 24.4 ± 0.941 | 21.6 ± 0.852 | more than 50% | 94.6 ± 2.35 | 90.3 ± 1.53 | 0.29 ± 0.01 | 8.310 | 2410 ± 109
3 | CCn1c(-c2ccc([N+](=O)[O-])cc2)csc1=NN=C(C)c1ccc(N2CCCCC2)cc1 [D3c, 3-Ethyl-4-(4-nitrophenyl)-2-((1-(4-(piperidin-1 yl)phenyl)ethylidene)hydrazineylidene)-2,3-dihydrothiazole] | > 1 | 33.9 ± 1.54 | 27.3 ± 1.16 |  | 42.8 ± 2.04 | 38.2 ± 1.74 | > 1000 |  | 
4 | CC(=NN=c1scc(-c2ccc(C)cc2C)n1C)c1ccc(N2CCCCC2)cc1 [D1i, 4-(2,4-Dimethylphenyl)-3-methyl-2-((1-(4-(piperidin-1-yl)phenyl)ethylidene)hydrazineylidene)-2,3-dihydrothiazole] | > 1 | 40.9 ± 1.86 | 29.5 ± 0.846 |  | 59.3 ± 1.29 | 13.7 ± 0.52 | > 100 |  | 
5 | CC(=NN=c1scc(-c2ccc(Cl)c(Cl)c2)n1C)c1ccc(N2CCCCC2)cc1 [D1h, 4-(3,4-Dichlorophenyl)-3-methyl-2-((1-(4-(piperidin-1-yl)phenyl)ethylidene)hydrazineylidene)-2,3-dihydrothiazole] | > 1 | 31.5 ± 1.31 | 24.3 ± 0.925 |  | 27.6 ± 1.18 | 14.7 ± 0.646 | > 1000 |  | 
